Assay results as given in the supplement of paper PMC13380429.

What was measured:
Conditions in all cases: 72 h
HepG2 [1] = assay: relative viability EC50 (midpoint between 100% and the lowest measured viability); higher = less toxic
Vero E6 [2] = assay: as above
U2OS [3] = assay: as above
Caco-2 [4] = assay: as above
HepG2 [5] = assay: drug sensitivity score (DSS) for viability; higher = more toxic; extreme values may be limits of the assay
Vero E6 [6] = assay: as above
U2OS [7] = assay: as above
Caco-2 [8] = assay: as above
HepG2 [9] = assay: cell viability relative to DMSO; higher = less toxic
Vero E6 [10] = assay: as above
U2OS [11] = assay: as above
Caco-2 [12] = assay: as above
Calu-3 [13] = assay: relative viability EC50 (midpoint between 100% and the lowest measured viability); higher = less toxic
Calu-3 [14] = assay: drug sensitivity score (DSS) for viability; higher = more toxic; extreme values may be limits of the assay
Calu-3 [15] = assay: cell viability relative to DMSO; higher = less toxic

SMILES: Cn1c(-c2ccccc2)nnc1S(C)(=O)=O
- relative viability EC50 (HepG2 [1]): > 10 µM
- relative viability EC50 (Vero E6 [2]): > 10 µM
- relative viability EC50 (U2OS [3]): > 10 µM
- relative viability EC50 (Caco-2 [4]): > 10 µM
- drug sensitivity score (HepG2 [5]): 0
- drug sensitivity score (Vero E6 [6]): 0
- drug sensitivity score (U2OS [7]): 0
- drug sensitivity score (Caco-2 [8]): 0
- cell viability (HepG2 [9]; 1 nM): 97.4%
- cell viability (HepG2 [9]; 10 nM): 99.1%
- cell viability (HepG2 [9]; 100 nM): 99.1%
- cell viability (HepG2 [9]; 1000 nM): 93.9%
- cell viability (HepG2 [9]; 10000 nM): 94.5%
- cell viability (Vero E6 [10]; 1 nM): 89.6%
- cell viability (Vero E6 [10]; 10 nM): 92.9%
- cell viability (Vero E6 [10]; 100 nM): 99.3%
- cell viability (Vero E6 [10]; 1000 nM): 94.9%
- cell viability (Vero E6 [10]; 10000 nM): 105%
- cell viability (U2OS [11]; 1 nM): 99.4%
- cell viability (U2OS [11]; 10 nM): 96.9%
- cell viability (U2OS [11]; 100 nM): 96.4%
- cell viability (U2OS [11]; 1000 nM): 99.3%
- cell viability (U2OS [11]; 10000 nM): 103%
- cell viability (Caco-2 [12]; 1 nM): 93%
- cell viability (Caco-2 [12]; 10 nM): 85.8%
- cell viability (Caco-2 [12]; 100 nM): 103%
- cell viability (Caco-2 [12]; 1000 nM): 103%
- cell viability (Caco-2 [12]; 10000 nM): 103%

SMILES: C[N+]12CCC(CC1)C(OC(=O)C(O)(c1ccccc1)c1ccccc1)C2 (stereo unspecified) [clidinium]
- relative viability EC50 (HepG2 [1]): > 10 µM
- relative viability EC50 (Vero E6 [2]): > 10 µM
- relative viability EC50 (Caco-2 [4]): > 10 µM
- drug sensitivity score (HepG2 [5]): 0
- drug sensitivity score (Vero E6 [6]): 0
- drug sensitivity score (Caco-2 [8]): 0
- cell viability (HepG2 [9]; 1 nM): 92.5%
- cell viability (HepG2 [9]; 10 nM): 108%
- cell viability (HepG2 [9]; 100 nM): 90.6%
- cell viability (HepG2 [9]; 1000 nM): 104%
- cell viability (HepG2 [9]; 10000 nM): 99.7%
- cell viability (Vero E6 [10]; 1 nM): 102%
- cell viability (Vero E6 [10]; 10 nM): 102%
- cell viability (Vero E6 [10]; 100 nM): 101%
- cell viability (Vero E6 [10]; 1000 nM): 102%
- cell viability (Vero E6 [10]; 10000 nM): 99.8%
- cell viability (Caco-2 [12]; 1 nM): 102%
- cell viability (Caco-2 [12]; 10 nM): 112%
- cell viability (Caco-2 [12]; 100 nM): 106%
- cell viability (Caco-2 [12]; 1000 nM): 95.4%
- cell viability (Caco-2 [12]; 10000 nM): 103%

SMILES: OC[C@H]1O[C@@H](Oc2ccc(O)cc2)[C@H](O)[C@@H](O)[C@@H]1O [arbutin]
- relative viability EC50 (HepG2 [1]): > 10 µM
- relative viability EC50 (Vero E6 [2]): > 10 µM
- relative viability EC50 (U2OS [3]): > 10 µM
- relative viability EC50 (Caco-2 [4]): > 10 µM
- drug sensitivity score (HepG2 [5]): 0
- drug sensitivity score (Vero E6 [6]): 0
- drug sensitivity score (U2OS [7]): 0
- drug sensitivity score (Caco-2 [8]): 0
- cell viability (HepG2 [9]; 1 nM): 99.2%
- cell viability (HepG2 [9]; 10 nM): 109%
- cell viability (HepG2 [9]; 100 nM): 98.6%
- cell viability (HepG2 [9]; 1000 nM): 105%
- cell viability (HepG2 [9]; 10000 nM): 103%
- cell viability (Vero E6 [10]; 1 nM): 98.6%
- cell viability (Vero E6 [10]; 10 nM): 98%
- cell viability (Vero E6 [10]; 100 nM): 91.6%
- cell viability (Vero E6 [10]; 1000 nM): 94.6%
- cell viability (Vero E6 [10]; 10000 nM): 94.5%
- cell viability (U2OS [11]; 1 nM): 97.9%
- cell viability (U2OS [11]; 10 nM): 102%
- cell viability (U2OS [11]; 100 nM): 102%
- cell viability (U2OS [11]; 1000 nM): 97.5%
- cell viability (U2OS [11]; 10000 nM): 108%
- cell viability (Caco-2 [12]; 1 nM): 95.7%
- cell viability (Caco-2 [12]; 10 nM): 101%
- cell viability (Caco-2 [12]; 100 nM): 105%
- cell viability (Caco-2 [12]; 1000 nM): 96%
- cell viability (Caco-2 [12]; 10000 nM): 103%

SMILES: Cc1ccc(C)c([C@H](O)CNC(C)C)c1 [benzenemethanol,-2,5-dimethyl-[[(1-methylethyl)amino]methyl]]
- relative viability EC50 (HepG2 [1]): > 10 µM
- relative viability EC50 (Vero E6 [2]): > 10 µM
- relative viability EC50 (U2OS [3]): > 10 µM
- relative viability EC50 (Caco-2 [4]): > 10 µM
- drug sensitivity score (HepG2 [5]): 0
- drug sensitivity score (Vero E6 [6]): 0
- drug sensitivity score (U2OS [7]): 0
- drug sensitivity score (Caco-2 [8]): 0
- cell viability (HepG2 [9]; 1 nM): 111%
- cell viability (HepG2 [9]; 10 nM): 92.6%
- cell viability (HepG2 [9]; 100 nM): 101%
- cell viability (HepG2 [9]; 1000 nM): 100%
- cell viability (HepG2 [9]; 10000 nM): 104%
- cell viability (Vero E6 [10]; 1 nM): 103%
- cell viability (Vero E6 [10]; 10 nM): 107%
- cell viability (Vero E6 [10]; 100 nM): 98.4%
- cell viability (Vero E6 [10]; 1000 nM): 103%
- cell viability (Vero E6 [10]; 10000 nM): 101%
- cell viability (U2OS [11]; 1 nM): 101%
- cell viability (U2OS [11]; 10 nM): 99.4%
- cell viability (U2OS [11]; 100 nM): 102%
- cell viability (U2OS [11]; 1000 nM): 99.2%
- cell viability (U2OS [11]; 10000 nM): 102%
- cell viability (Caco-2 [12]; 1 nM): 102%
- cell viability (Caco-2 [12]; 10 nM): 96.3%
- cell viability (Caco-2 [12]; 100 nM): 92.6%
- cell viability (Caco-2 [12]; 1000 nM): 93.7%
- cell viability (Caco-2 [12]; 10000 nM): 96.3%

SMILES: CN1CCC(NC(=O)c2cc(-c3c(O)cc(O)cc3Oc3ccc([N+](=O)[O-])cc3)on2)CC1 [NMS-E973]
- relative viability EC50 (HepG2 [1]): 0.108 µM
- relative viability EC50 (U2OS [3]): 0.65 µM
- relative viability EC50 (Caco-2 [4]): 0.874 µM
- relative viability EC50 (Calu-3 [13]): 0.669 µM
- drug sensitivity score (HepG2 [5]): 23.6
- drug sensitivity score (Vero E6 [6]): 1.4
- drug sensitivity score (U2OS [7]): 13.6
- drug sensitivity score (Caco-2 [8]): 8.3
- drug sensitivity score (Calu-3 [14]): 7
- cell viability (HepG2 [9]; 1 nM): 108%
- cell viability (HepG2 [9]; 10 nM): 101%
- cell viability (HepG2 [9]; 100 nM): 55%
- cell viability (HepG2 [9]; 1000 nM): 0.9%
- cell viability (HepG2 [9]; 10000 nM): 0.9%
- cell viability (Vero E6 [10]; 1 nM): 109%
- cell viability (Vero E6 [10]; 10 nM): 100%
- cell viability (Vero E6 [10]; 100 nM): 106%
- cell viability (Vero E6 [10]; 1000 nM): 108%
- cell viability (Vero E6 [10]; 10000 nM): 62.2%
- cell viability (U2OS [11]; 1 nM): 94.2%
- cell viability (U2OS [11]; 10 nM): 103%
- cell viability (U2OS [11]; 100 nM): 99.5%
- cell viability (U2OS [11]; 1000 nM): 28.2%
- cell viability (U2OS [11]; 10000 nM): 3.7%
- cell viability (Caco-2 [12]; 1 nM): 99.1%
- cell viability (Caco-2 [12]; 10 nM): 97.8%
- cell viability (Caco-2 [12]; 100 nM): 101%
- cell viability (Caco-2 [12]; 1000 nM): 61.3%
- cell viability (Caco-2 [12]; 10000 nM): 33.7%
- cell viability (Calu-3 [15]; 1 nM): 93.7%
- cell viability (Calu-3 [15]; 10 nM): 101%
- cell viability (Calu-3 [15]; 100 nM): 90.4%
- cell viability (Calu-3 [15]; 1000 nM): 68.4%
- cell viability (Calu-3 [15]; 10000 nM): 44%

SMILES: O=C(O)CN1C(=O)c2cccc3cccc(c23)C1=O [alrestatin]
- relative viability EC50 (HepG2 [1]): > 10 µM
- relative viability EC50 (Vero E6 [2]): > 10 µM
- relative viability EC50 (U2OS [3]): > 10 µM
- relative viability EC50 (Caco-2 [4]): > 10 µM
- drug sensitivity score (HepG2 [5]): 0
- drug sensitivity score (Vero E6 [6]): 0
- drug sensitivity score (U2OS [7]): 0
- drug sensitivity score (Caco-2 [8]): 0
- cell viability (HepG2 [9]; 1 nM): 95.4%
- cell viability (HepG2 [9]; 10 nM): 102%
- cell viability (HepG2 [9]; 100 nM): 90.7%
- cell viability (HepG2 [9]; 1000 nM): 98%
- cell viability (HepG2 [9]; 10000 nM): 101%
- cell viability (Vero E6 [10]; 1 nM): 94.8%
- cell viability (Vero E6 [10]; 10 nM): 102%
- cell viability (Vero E6 [10]; 100 nM): 105%
- cell viability (Vero E6 [10]; 1000 nM): 96.6%
- cell viability (Vero E6 [10]; 10000 nM): 101%
- cell viability (U2OS [11]; 1 nM): 98.9%
- cell viability (U2OS [11]; 10 nM): 96.6%
- cell viability (U2OS [11]; 100 nM): 96.1%
- cell viability (U2OS [11]; 1000 nM): 102%
- cell viability (U2OS [11]; 10000 nM): 105%
- cell viability (Caco-2 [12]; 1 nM): 99%
- cell viability (Caco-2 [12]; 10 nM): 95.2%
- cell viability (Caco-2 [12]; 100 nM): 101%
- cell viability (Caco-2 [12]; 1000 nM): 96.7%
- cell viability (Caco-2 [12]; 10000 nM): 107%

SMILES: CCOC(=O)CSCCC1NC(C(=O)O)CS1 (stereo unspecified) [letosteine]
- relative viability EC50 (HepG2 [1]): > 10 µM
- relative viability EC50 (U2OS [3]): > 10 µM
- relative viability EC50 (Caco-2 [4]): > 10 µM
- relative viability EC50 (Calu-3 [13]): > 10 µM
- drug sensitivity score (HepG2 [5]): 0
- drug sensitivity score (Vero E6 [6]): 1.1
- drug sensitivity score (U2OS [7]): 0
- drug sensitivity score (Caco-2 [8]): 0
- drug sensitivity score (Calu-3 [14]): 0
- cell viability (HepG2 [9]; 1 nM): 80.5%
- cell viability (HepG2 [9]; 10 nM): 96.4%
- cell viability (HepG2 [9]; 100 nM): 98.7%
- cell viability (HepG2 [9]; 1000 nM): 95.6%
- cell viability (HepG2 [9]; 10000 nM): 92.9%
- cell viability (Vero E6 [10]; 1 nM): 75.4%
- cell viability (Vero E6 [10]; 10 nM): 102%
- cell viability (Vero E6 [10]; 100 nM): 74.4%
- cell viability (Vero E6 [10]; 1000 nM): 98.3%
- cell viability (Vero E6 [10]; 10000 nM): 93.3%
- cell viability (U2OS [11]; 1 nM): 101%
- cell viability (U2OS [11]; 10 nM): 102%
- cell viability (U2OS [11]; 100 nM): 107%
- cell viability (U2OS [11]; 1000 nM): 99.6%
- cell viability (U2OS [11]; 10000 nM): 103%
- cell viability (Caco-2 [12]; 1 nM): 90.8%
- cell viability (Caco-2 [12]; 10 nM): 80.7%
- cell viability (Caco-2 [12]; 100 nM): 97.4%
- cell viability (Caco-2 [12]; 1000 nM): 97.9%
- cell viability (Caco-2 [12]; 10000 nM): 75.5%
- cell viability (Calu-3 [15]; 1 nM): 97.6%
- cell viability (Calu-3 [15]; 10 nM): 97.1%
- cell viability (Calu-3 [15]; 100 nM): 116%
- cell viability (Calu-3 [15]; 1000 nM): 96.9%
- cell viability (Calu-3 [15]; 10000 nM): 101%
